Measured values reported in patent publication US20120219623A1, “PHARMACEUTICAL COMPOSITIONS COMPRISING BI-1356 AND METFORMIN” (BOEHRINGER INGELHEIM INTERNATIONAL GMBH, priority 2009, published 2012).

What was measured:
[1] = test system: type 2 diabetes patients with insufficient glycemic control on metformin plus sulfonylurea; experiment: 24-wk placebo-controlled study of linagliptin add-on to metformin plus sulfonylurea
[2] = therapeutic oral dose levels
[3] = test system: inadequately controlled, metformin-treated type 2 diabetic patients; experiment: 12-week randomized, double-blind study of BI 1356 add-on to metformin vs placebo or open label glimepiride; conditions: 12 weeks
[4] = test system: type 2 diabetes mellitus patients with insufficient glycemic control on metformin; conditions: human, in vivo, 24 weeks

excreted via the kidney [2]: < 7 % of the administered oral dose | drug-related hypoglycaemia [3]: no case of hypoglycaemia | hypoglycemia, proportion of patients [4]: 0.6%
Compound: CC#CCn1c(N2CCC[C@@H](N)C2)nc2c1c(=O)n(Cc1nc(C)c3ccccc3n1)c(=O)n2C [BI 1356]
insulin resistance (HOMA-IR) ([1]; LI vs. PBO, FAS, P<0.05): improve | β-cell function (HOMA-% B) ([1]; LI vs. PBO, FAS, P<0.05): improve | adjusted mean difference between LI and PBO for the change in fasting plasma glucose (FPG) from baseline ([1]; wk 24, full analysis set, add-on to MET plus SU): -13 mg/dL | route of excretion [2]: primarily excreted unchanged via the bile | proportion of patients reporting at least one adverse event (AE) [4]: 52.8%
